Data on eight compounds can be found in patent US4327097A, “Novel penicillins” (Toyama Chemical Co., Ltd., priority 1974, dated 1982).

What all share (type): cell-based
One experiment deals with Escherichia coli NIHJ. In words: MIC, plate method, standard strains. The following applies: unit assumed; for MIC Esche--richin coil NIHJ: Table 3, standard strain; for MIC Escherichia coli NIHJ: Table 4, standard strain. On the procedure:
(§1) The minimum inhibitory concentration (MIC) was determined by the plate method disclosed in "Chemotherapy" (Japan), Vol. 16, (1968), pages 98-99. The culture medium used was a Heart infusion agar (pH 7.4). The number of the cells per plate used in the inoculum was 10^4 (10^6 cells/ml).

The test system of experiment [1] is Pseudomonas aeruginosa I.F.O. In words: MIC, plate method, standard strains. The following applies: unit assumed; for MIC Pseudomonas aeruginosa I.F.C: Table 3, standard strain; for MIC Pseudomonas aeruginosa I.F.O.: Table 4, standard strain. How it is done: as §1
Experiment [2] relates to Staphylococcus aureus 209p. In words: MIC, plate method, standard strains. The note with it: unit assumed. How it is done: as §1
In experiment [3] the test system is Klebsiella pneumoniae. In words: MIC, plate method, standard strains. The note with it: unit assumed. How it is done:
as §1

Another experiment relates to Proteus vulgaris 3027. In words: MIC, plate method, standard strains. The note with it: unit assumed. How it is done: as §1
For a further experiment, the system named is Staphylococcus aureus. In words: MIC against clinical isolates. The note with it: Table 5-1, clinical isolate; unit assumed.
In another experiment the test system is Escherichia coli. In words: MIC against clinical isolates. The following applies: Table 5-2, clinical isolate; unit assumed.
The next experiment deals with Pseudomonas aeruginosa. In words: MIC against clinical isolates. The note with it: Table 5-3, clinical isolate; unit assumed.
Experiment [4] deals with Klebsiella pneumoniae. In words: MIC against clinical isolates. The following applies: Table 5-4, clinical isolate; unit assumed.
The next experiment has as its system Shigella flexneri. In words: MIC against clinical isolates. The note with it: Table 5-5, clinical isolate; unit assumed. How it is done: as §1
(§2) MIC was determined in the same manner as in the preceding paragraph (1).

The next experiment has as its system Shigella sonnei. In words: MIC against clinical isolates. The note with it: Table 5-5, clinical isolate; unit assumed. How it is done:
as §1, §2

The mark [5] stands for this setting: Table 3, standard strain, Heart infusion agar pH 7.4.

Molecules are shown by their SMILES. ≈ marks a conversion by molar mass, not a printed value.

In turn, `CC1(C)S[C@@H]2[C@H](NC(=O)[C@H](NC(=O)N3CCN(C(=O)Nc4ccccc4)C(=O)C3)c3ccccc3)C(=O)N2[C@H]1C(=O)O` [Compound 33] displayed an MIC Esche--richin coil NIHJ in the experiment on Escherichia coli NIHJ of under 1.57 µg/mL. The same compound showed an MIC Pseudomonas aeruginosa I.F.C in experiment [1] of 50 µg/mL (≈ 84.1 µM). Besides, in experiment [2] (setting [5]), the MIC Staphylococcus aureus 209p was under 1.57 µg/mL.

Regarding `CCN1CCN(C(=O)NC(C(=O)NC2C(=O)N3C(C(=O)O)=C(CSc4cnn[nH]4)CSC23)c2ccccc2)C(=O)C1=O` (single isomer, unassigned) [compound 75], the MIC Escherichia coli NIHJ in the experiment on Escherichia coli NIHJ is under 0.4 µg/mL. Besides, in the experiment on Klebsiella pneumoniae [3] (Table 4, standard strain), the MIC Klebsiella pneumoniae came out at 1.57 µg/mL (≈ 2.55 µM). In addition, the MIC Proteus vulgaris 3027 in the experiment with Proteus vulgaris 3027 (Table 4, standard strain) amounted to 12.5 µg/mL (≈ 20.3 µM). The MIC Pseudomonas aeruginosa I.F.O. in experiment [1] is 50 µg/mL (≈ 81.3 µM). In experiment [2] (Table 4, standard strain), this compound yielded an MIC Staphylococcus aureus 209p of 1.57 µg/mL (≈ 2.55 µM).

For the compound `Cn1nnnc1SCC1=C(C(=O)O)N2C(=O)C(NC(=O)C(NC(=O)N3CCN(CCO)C(=O)C3=O)c3ccc(O)cc3)C2SC1` (single isomer, unassigned) [compound 83], the MIC Escherichia coli NIHJ in the experiment with Escherichia coli NIHJ was under 1.57 µg/mL. This compound yielded an MIC Klebsiella pneumoniae with Klebsiella pneumoniae [3] (Table 4, standard strain) of under 1.57 µg/mL. In the experiment with Proteus vulgaris 3027 (Table 4, standard strain), the MIC Proteus vulgaris 3027 was under 1.57 µg/mL. Moreover, the MIC Pseudomonas aeruginosa I.F.O. in experiment [1] is 25 µg/mL (≈ 37.8 µM). The compound further gave an MIC Staphylococcus aureus 209p in experiment [2] (Table 4, standard strain) of 1.57 µg/mL (≈ 2.37 µM).

Regarding `CCCCCCN1CCN(C(=O)N[C@@H](C(=O)N[C@@H]2C(=O)N3[C@@H]2SC(C)(C)[C@@H]3C(=O)O)c2ccccc2)C(=O)C1` [Compound 13], the MIC Esche--richin coil NIHJ against Escherichia coli NIHJ is under 1.57 µg/mL. Also, the MIC Klebsiella pneumoniae with Klebsiella pneumoniae [3] (Table 3, standard strain) was under 1.57 µg/mL. In the experiment on Proteus vulgaris 3027 (Table 3, standard strain), this compound gave an MIC Proteus vulgaris 3027 of under 1.57 µg/mL. In addition, the MIC Staphylococcus aureus 209p in experiment [2] (setting [5]) is under 1.57 µg/mL. In addition, in the experiment with Staphylococcus aureus, the MIC Staphylococcus aureus F-1 is 12.5 µg/mL (≈ 22.3 µM), the MIC Staphylococcus aureus F-2 is 1.57 µg/mL (≈ 2.81 µM), the MIC Staphylococcus aureus F-4 is 6.25 µg/mL (≈ 11.2 µM) and the MIC Staphylococcus aureus MS 8588 was 3.13 µg/mL (≈ 5.59 µM). Further, in the experiment on Staphylococcus aureus, the MIC Staphylococcus aureus MS 8596 came out at 3.13 µg/mL (≈ 5.59 µM), the MIC Staphylococcus aureus MS 8684 was determined as 3.13 µg/mL (≈ 5.59 µM) and the MIC Staphylococcus aureus MS 8713 came out at 3.13 µg/mL (≈ 5.59 µM). In addition, in the experiment on Escherichia coli, the MIC Escherichia coli GN 3435 was determined as 3.13 µg/mL (≈ 5.59 µM), the MIC Escherichia coli GN 3452 worked out at 3.13 µg/mL (≈ 5.59 µM), the MIC Escherichia coli GN 3481 came out at 6.25 µg/mL (≈ 11.2 µM) and the MIC Escherichia coli K-1 stood at 3.13 µg/mL (≈ 5.59 µM). Besides, in the experiment on Escherichia coli, the MIC Escherichia coli K-2 is 6.25 µg/mL (≈ 11.2 µM) and the MIC Escherichia coli K-4 was determined as 6.25 µg/mL (≈ 11.2 µM). The compound also yielded an MIC Pseudomonas aeruginosa GN 2987 in the experiment with Pseudomonas aeruginosa of 12.5 µg/mL (≈ 22.3 µM). In the experiment with Klebsiella pneumoniae [4], this compound showed an MIC Klebsiella pneumoniae GN 917 of 12.5 µg/mL (≈ 22.3 µM) and an MIC Klebsiella pneumoniae GN 3850 of 6.25 µg/mL (≈ 11.2 µM). In the experiment on Shigella flexneri, this compound came in with an MIC Shigella flexneri JS 11215 of 12.5 µg/mL (≈ 22.3 µM) and an MIC Shigella flexneri JS 11839 of 1.57 µg/mL (≈ 2.81 µM). In the experiment on Shigella sonnei, this compound returned an MIC Shigella sonnei JS 11232 of 12.5 µg/mL (≈ 22.3 µM) and an MIC Shigella sonnei JS 11755 of 3.13 µg/mL (≈ 5.59 µM).

On to `Cc1csc(SCC2=C(C(=O)O)N3C(=O)C(NC(=O)C(NC(=O)N4CCN(C)C(=O)C4=O)c4ccccc4)C3SC2)n1` (single isomer, unassigned) [compound 71], for which, in the experiment on Escherichia coli NIHJ, the MIC Escherichia coli NIHJ is under 0.79 µg/mL. Moreover, the MIC Klebsiella pneumoniae against Klebsiella pneumoniae [3] (Table 4, standard strain) stood at 1.56 µg/mL (≈ 2.47 µM). Moreover, the MIC Proteus vulgaris 3027 with Proteus vulgaris 3027 (Table 4, standard strain) is under 0.79 µg/mL. The compound further showed an MIC Pseudomonas aeruginosa I.F.O. in experiment [1] of 50 µg/mL (≈ 79.3 µM). Also, in experiment [2] (Table 4, standard strain), the MIC Staphylococcus aureus 209p was under 0.79 µg/mL.

The compound `CC1(C)SC2C(NC(=O)C(NC(=O)N3CC(=O)NC(=O)C3)c3ccccc3)C(=O)N2C1C(=O)O` (stereo not shown) [compound 59] came in with an MIC Esche--richin coil NIHJ with Escherichia coli NIHJ of under 1.57 µg/mL. The MIC Klebsiella pneumoniae with Klebsiella pneumoniae [3] (Table 3, standard strain) is 200 µg/mL (≈ 409 µM). The same compound came in with an MIC Proteus vulgaris 3027 in the experiment on Proteus vulgaris 3027 (Table 3, standard strain) of 3.13 µg/mL (≈ 6.39 µM). Further, in experiment [1], the MIC Pseudomonas aeruginosa I.F.C came out at 25 µg/mL (≈ 51.1 µM). The MIC Staphylococcus aureus 209p in [2] (setting [5]) is under 1.57 µg/mL.

Take `CC1(C)S[C@@H]2[C@H](NC(=O)[C@H](NC(=O)N3CC(=O)N(C(=O)c4ccccc4)CC3=O)c3ccccc3)C(=O)N2[C@H]1C(=O)O` [Compound 34]: the MIC Klebsiella pneumoniae against Klebsiella pneumoniae [3] (Table 3, standard strain) came to 50 µg/mL (≈ 84.2 µM). Further, in the experiment with Proteus vulgaris 3027 (Table 3, standard strain), the MIC Proteus vulgaris 3027 was 50 µg/mL (≈ 84.2 µM). For the same compound, the MIC Pseudomonas aeruginosa I.F.C in [1] is 100 µg/mL (≈ 168 µM).

Take `CC1(C)SC2C(NC(=O)C(NC(=O)N3CCN(CCCl)C(=O)C3=O)c3ccccc3)C(=O)N2C1C(=O)O` (single isomer, unassigned) [Compound 44]: the MIC Esche--richin coil NIHJ against Escherichia coli NIHJ is under 1.57 µg/mL. In the experiment on Klebsiella pneumoniae [3] (Table 3, standard strain), this compound showed an MIC Klebsiella pneumoniae of under 1.57 µg/mL. This compound yielded an MIC Proteus vulgaris 3027 in the experiment on Proteus vulgaris 3027 (Table 3, standard strain) of under 1.57 µg/mL. The same compound showed an MIC Pseudomonas aeruginosa I.F.C in experiment [1] of 6.25 µg/mL (≈ 11.3 µM). In [2] (setting [5]), the MIC Staphylococcus aureus 209p is under 1.57 µg/mL.
